Source: patent US20230203060A1 (GENFLEET THERAPEUTICS (SHANGHAI) INC., priority 2020, published 2023)

Tests used:
[1] = tested on: KRAS G12C mutant MIA PaCa-2 cells; experiment: Cell proliferation inhibition experiment, 3D spheroid, CellTiter-Glo, MIA PaCa-2; format: cell-based, human; settings: Homo sapiens, MIA PaCa-2, 120 h, 3D cell model in 384-well spheroid plate, 5 days, CellTiter-Glo; read-out: MIA-PaCa2 IC50
Method in brief: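 Luminescent ATP read-out (CellTiter-Glo) after 5-day compound treatment of spheroids formed overnight from 200 MIA PaCa-2 cells/well; compounds in 3.16-fold series, 0.1% DMSO final. IC50 derived by four-parameter fit of percent inhibition, normalized to DMSO control and medium blank.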

[2] = tested on: phosphorylated ERK downstream of KRAS G12C in MIA PaCa2 cells; experiment: Cell p-ERK detection experiment (HTRF) in MIA PaCa2; format: cell-based, human; settings: Homo sapiens, MIA PaCa-2, 2 h, MIA PaCa2 cells, 2 hours with compound, Advance ERK phospho-T202/Y204 HTRF kit; read-out: p-ERK IC50
Method in brief: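 Phospho-ERK (T202/Y204) measured by HTRF after 30 min lysis and 4 h antibody incubation in MIA PaCa2 (KRAS G12C) cells, seeded at 2.5E4 per well and treated 2 h with compounds in 3.16-fold steps, final DMSO 0.1%. IC50 from a four-parameter fit of percent inhibition relative to DMSO and blank wells.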

`C=CC(=O)N1CCN2C(=O)c3c(N4CCC(OC)C4(C)C)nc(-c4c(O)cccc4F)c(Cl)c3OC[C@H]2C1` (stereo partly drawn) [Z241a, (6aR)-8-acryloyl-4-chloro-3-(2-fluoro-6-hydroxyphenyl)-1-(3-methoxy-2,2-dimethylpyrrolidin-1-yl)-6,6a,7,8,9,10-hexahydro-12H-pyrazino[2,1-c]pyrido[3,4-f][1,4]oxazepin-12-one] gave an IC50 [1] of 2.4 nM and an IC50 [2] of 12 nM.

Compound `C=CC(=O)N1CCN2C(=O)c3c(N4C[C@@H](N(C)C)C[C@@H]4C)nc(-c4c(O)cccc4F)c(Cl)c3OC[C@H]2C1` [Z237-2, (6aR)-8-acryloyl-4-chloro-1-((2S,4S)-4-(dimethylamino)-2-methylpyrrolidin-1-yl)-3-(2-fluoro-6-hydroxyphenyl)-6,6a,7,8,9,10-hexahydro-12H-pyrazino[2,1-c]pyrido[3,4-f][1,4]oxazepin-12-one] has an IC50 [1] of 7.7 nM and an IC50 [2] of 30 nM.

With `C=CC(=O)N1CCN2C(=O)c3c(N4CCC(O)C4(C)C)nc(-c4c(O)cccc4F)c(Cl)c3OC[C@H]2C1` (stereo partly drawn) [Z241, (6aR)-8-acryloyl-1-(3-hydroxy-2,2-dimethylpyrrolidin-1-yl)-4-chloro-3-(2-fluoro-6-hydroxyphenyl)-6,6a,7,8,9,10-hexahydro-12H-pyrazino[2,1-c]pyrido[3,4-f][1,4]oxazepin-12-one] the IC50 [1] was 4.9 nM and the IC50 [2] was 22 nM.

Compound `C=CC(=O)N1CCN2C(=O)c3c(N4CCN(S(C)(=O)=O)C[C@@H]4C)nc(-c4c(O)cccc4F)c(Cl)c3OC[C@H]2C1` [Z318-1, (6aR)-8-acryloyl-1-((S)-2-methyl-4-(methylsulfonyl)piperazin-1-yl)-4-chloro-3-(2-fluoro-6-hydroxyphenyl)-6,6a,7,8,9,10-hexahydro-12H-pyrazino[2,1-c]pyrido[3,4-f][1,4]oxazepin-12-one] has an IC50 [1] of 10.9 nM and an IC50 [2] of 87 nM.

`C=CC(=O)N1CCN2C(=O)c3c(N4C[C@@H](N(C)CCOC)C[C@@H]4C)nc(-c4c(O)cccc4F)c(Cl)c3OC[C@H]2C1` [Z358-1] was tested, and the IC50 [1] was 7.2 nM and the IC50 [2] was 23 nM.

In the case of `C=CC(=O)N1CCN2C(=O)c3c(N4C[C@@H](OC)C[C@@H]4C)nc(-c4c(O)cccc4F)c(Cl)c3OC[C@H]2C1` [Z260a, (6aR)-8-acryloyl-4-chloro-3-(2-fluoro-6-hydroxyphenyl)-1-((2S,4S)-4-methoxy-2-methylpyrrolidin-1-yl)-6,6a,7,8,9,10-hexahydro-12H-pyrazino[2,1-c]pyrido[3,4-f][1,4]oxazepin-12-one], the IC50 [1] is reported as 3.6 nM and the IC50 [2] is reported as 22 nM.

Compound `C=CC(=O)N1CCN2C(=O)c3c(N4CCN(C(=O)C5CC5)C[C@@H]4C)nc(-c4c(O)cccc4F)c(Cl)c3OC[C@H]2C1` [Z320-1, (6aR)-8-acryloyl-4-chloro-1-((S)-4-(cyclopropanecarbonyl)-2-methylpiperazin-1-yl)-3-(2-fluoro-6-hydroxyphenyl)-6,6a,7,8,9,10-hexahydro-12H-pyrazino[2,1-c]pyrido[3,4-f][1,4]oxazepin-12-one] has an IC50 [1] of 1.7 nM and an IC50 [2] of 17 nM.

`C=CC(=O)N1CCN2C(=O)c3c(N4C[C@H](N(C)CCOC)CC4(C)C)nc(-c4c(O)cccc4F)c(Cl)c3OC[C@H]2C1` (single isomer, unassigned) [Z296-2] was tested, and the IC50 [1] was 8 nM and the IC50 [2] was 32 nM.

Work on `C=CC(=O)N1CCN2C(=O)c3c(N4CC[C@H](N(C)C)C4(C)C)nc(-c4c(O)cccc4F)c(Cl)c3OC[C@H]2C1` (single isomer, unassigned) [Z360-2] yielded an IC50 [1] of 6 nM and an IC50 [2] of 25 nM.

Work on `C=CC(=O)N1CCN2C(=O)c3c(N(C)c4c(C(C)C)ncnc4C(C)C)nc(-c4c(O)cccc4F)c(Cl)c3OC[C@H]2C1` [Z20, (6aR)-8-acryloyl-4-chloro-1-((4,6-diisopropylpyrimidin-5-yl)(methyl)amino)-3-(2-fluoro-6-hydroxyphenyl)-6,6a,7,8,9,10-hexahydro-12H-pyrazino[2,1-c]pyrido[3,4-f][1,4]oxazepin-12-one] yielded an IC50 [1] of 8 nM and an IC50 [2] of 86 nM.

In the case of `C=CC(=O)N1CCN2C(=O)c3c(N4CC[C@H](OC)C4(C)C)nc(-c4c(O)cccc4F)c(F)c3OC[C@H]2C1` (single isomer, unassigned) [Z327-2], the IC50 [1] is reported as 16.2 nM and the IC50 [2] is reported as 172 nM.

`C=CC(=O)N1CCN2C(=O)c3c(N4C[C@H](N5CCOCC5)CC4(C)C)nc(-c4c(O)cccc4F)c(Cl)c3OC[C@H]2C1` (single isomer, unassigned) [Z297-1] gave an IC50 [1] of 3 nM and an IC50 [2] of 11 nM.

`C=CC(=O)N1CCN2C(=O)c3c(N4CC[C@@H](OC)C4(C)C)nc(-c4c(O)cccc4F)c(F)c3OC[C@H]2C1` (single isomer, unassigned) [Z327-1] gave an IC50 [1] of 7.1 nM and an IC50 [2] of 66 nM.

`C=CC(=O)N1CCN2C(=O)c3c(N4CCN(CCOC)C(C)(C)C4)nc(-c4c(O)cccc4F)c(Cl)c3OC[C@H]2C1` [Z321, (6aR)-8-acryloyl-4-chloro-3-(2-fluoro-6-hydroxyphenyl)-1-(4-(2-methoxyethyl)-3,3-dimethylpiperazin-1-yl)-6,6a,7,8,9,10-hexahydro-12H-pyrazino[2,1-c]pyrido[3,4-f][1,4]oxazepin-12-one] showed an IC50 [1] of 7 nM and an IC50 [2] of 50 nM.

Compound `C=CC(=O)N1CCN2C(=O)c3c(N4C[C@H](OC)CC4(C)C)nc(-c4c(O)cccc4F)c(Cl)c3OC[C@H]2C1` (single isomer, unassigned) [Z244-2] has an IC50 [1] of 1 nM and an IC50 [2] of 5 nM.

With `C=CC(=O)N1CCN2C(=O)c3c(N4CCN(C(=O)CC)C[C@@H]4C)nc(-c4c(O)cccc4F)c(Cl)c3OC[C@H]2C1` [Z316-1, (6aR)-8-acryloyl-4-chloro-3-(2-fluoro-6-hydroxyphenyl)-1-((S)-2-methyl-4-propionylpiperazin-1-yl)-6,6a,7,8,9,10-hexahydro-12H-pyrazino[2,1-c]pyrido[3,4-f][1,4]oxazepin-12-one] the IC50 [1] was 2.2 nM and the IC50 [2] was 20 nM.

`C=CC(=O)N1CCN2C(=O)c3c(N4CC[C@@H](N(C)C)C4(C)C)nc(-c4c(O)cccc4F)c(Cl)c3OC[C@H]2C1` (single isomer, unassigned) [Z360-1] showed an IC50 [1] of 19.6 nM and an IC50 [2] of 85 nM.

`C=CC(=O)N1CCN2C(=O)c3c(N4C[C@](C)(O)CC4(C)C)nc(-c4c(O)cccc4F)c(Cl)c3OC[C@H]2C1` (single isomer, unassigned) [Z243-2] showed an IC50 [1] of 22.2 nM and an IC50 [2] of 108 nM.

`C=CC(=O)N1CCN2C(=O)c3c(N4C[C@@H](OC)C[C@@H]4C)nc(-c4c(O)cccc4F)c(F)c3OC[C@H]2C1` [Z359-1, (6aR)-8-actyloyl-4-fluoro-3-(2-fluoro-6-hydroxyphenyl)-1-((2S,4S)-4-methoxy-2-methylpyrrolidin-1-yl)-6,6a,7,8,9,10-hexahydro-12H-pyrazino[2,1-c]pyrido[3,4-f][1,4]oxazepin-12-one] gave an IC50 [1] of 17.6 nM and an IC50 [2] of 93 nM.

With `C=CC(=O)N1CCN2C(=O)c3c(N4C[C@@H](O)CC4(C)C)nc(-c4c(O)cccc4F)c(F)c3OC[C@H]2C1` (single isomer, unassigned) [Z256-1] the IC50 [1] was 5 nM and the IC50 [2] was 20 nM.

Compound `C=CC(=O)N1CCN2C(=O)c3c(N4CCN(CCOC)C[C@@H]4C)nc(-c4c(O)cccc4F)c(Cl)c3OC[C@H]2C1` [Z257a, (6aR)-8-acryloyl-4-chloro-3-(2-fluoro-6-hydroxyphenyl)-1-((S)-4-(2-methoxyethyl)-2-methylpiperazin-1-yl)-6,6a,7,8,9,10-hexahydro-12H-pyrazino[2,1-c]pyrido[3,4-f][1,4]oxazepin-12-one] has an IC50 [1] of 9 nM and an IC50 [2] of 26 nM.

With `C=CC(=O)N1CCN2C(=O)c3c(N4CC(C#N)CC4(C)C)nc(-c4c(O)cccc4F)c(Cl)c3OC[C@H]2C1` (stereo partly drawn) [Z275, (6aR)-8-acryloyl-1-(4-cyano-2,2-dimethylpyrrolidin-1-yl)-4-chloro-3-(2-fluoro-6-hydroxyphenyl)-6,6a,7,8,9,10-hexahydro-12H-pyrazino[2,1-c]pyrido[3,4-f][1,4]oxazepin-12-one] the IC50 [1] was 5 nM and the IC50 [2] was 16 nM.

In the case of `C=CC(=O)N1CCN2C(=O)c3c(N4CCN(C)C(=O)[C@@H]4C)nc(-c4c(O)cccc4F)c(Cl)c3OC[C@H]2C1` [Z311-1, (6aR)-8-actyloyl-4-chloro-1-((S)-2,4-dimethyl-3-oxopiperazin-1-yl)-3-(2-fluoro-6-hydroxyphenyl)-6,6a,7,8,9,10-hexahydro-12H-pyrazino[2,1-c]pyrido[3,4-f][1,4]oxazepin-12-one], the IC50 [1] is reported as 12 nM and the IC50 [2] is reported as 70 nM.

`C=CC(=O)N1CCN2C(=O)c3c(N4CCC(N(C)C)C4(C)C)nc(-c4c(O)cccc4F)c(Cl)c3OC[C@H]2C1` (stereo partly drawn) [Z334, (6aR)-8-acryloyl-4-chloro-1-(3-(dimethylamino)-2,2-dimethylpyrrolidin-1-yl)-3-(2-fluoro-6-hydroxyphenyl)-6,6a,7,8,9,10-hexahydro-12H-pyrazino[2,1-c]pyrido[3,4-f][1,4]oxazepin-12-one] gave an IC50 [1] of 11 nM and an IC50 [2] of 62 nM.

Compound `C=CC(=O)N1CCN2C(=O)c3c(N4C[C@H](O)CC4(C)C)nc(-c4ccccc4F)c(Cl)c3OC[C@H]2C1` (single isomer, unassigned) [Z325-2] has an IC50 [1] of 15.5 nM and an IC50 [2] of 61 nM.

Compound `C=CC(=O)N1CCN2C(=O)c3c(N4CCN(C)C[C@@H]4C)nc(-c4c(F)ccc(Cl)c4O)c(Cl)c3OC[C@H]2C1` [Z342, (6aR)-8-acryloyl-4-chloro-3-(3-chloro-6-fluoro-2-hydroxyphenyl)-1-((S)-2,4-dimethylpiperazin-1-yl)-6,6a,7,8,9,10-hexahydro-12H-pyrazino[2,1-c]pyrido[3,4-f][1,4]oxazepin-12-one] has an IC50 [1] of 16 nM and an IC50 [2] of 84 nM.

Work on `C=CC(=O)N1CCN2C(=O)c3c(N4C[C@H](OC)CC4(C)C)nc(-c4c(O)cccc4F)c(F)c3OC[C@H]2C1` (single isomer, unassigned) [Z256a-2] yielded an IC50 [1] of 3.8 nM and an IC50 [2] of 17 nM.
